According to patent US20250115600A1, “COVALENT MODIFIERS OF AKT1 AND USES THEREOF” (Terremoto Biosciences, Inc., priority 2022, published 2025):

Experiments:
AKT1 E17K [1] = target: T1, AKT1 E17K (Homo sapiens (Human), UniProt P31749, E17K); assay: Dissociation rate by intact protein LCMS after ARQ092 chase; assay type: binding; settings: for AKT1 E17K t1/2: compound 1.5 μM, 2 hours at 37° C., then ARQ092 50 μM; for Off-rate Selectivity E17K/WT: ratio of t1/2
Description: (§1) AKT1 WT or AKT1 E17K (1 μM) were treated with a compound of Table 1 (1.5 μM) for 2 hours at 37° C., then ARQ092 (50 μM final concentration) was added to prevent aldehyde-containing compound rebinding after initial dissociation. At various timepoints, aliquots were removed and quenched with 5 mM NaBH4 for 5 min to capture the reversible imine through reductive amination. Reduction reactions were quenched by diluting the sample in equal volume acetonitrile+1% TFA, then analyzed by LCMS. Deconvoluted monoisotopic intensities of unmodified vs. compound-modified mass peaks were compared.
Target sequence in this assay (P31749 2-480 E17K): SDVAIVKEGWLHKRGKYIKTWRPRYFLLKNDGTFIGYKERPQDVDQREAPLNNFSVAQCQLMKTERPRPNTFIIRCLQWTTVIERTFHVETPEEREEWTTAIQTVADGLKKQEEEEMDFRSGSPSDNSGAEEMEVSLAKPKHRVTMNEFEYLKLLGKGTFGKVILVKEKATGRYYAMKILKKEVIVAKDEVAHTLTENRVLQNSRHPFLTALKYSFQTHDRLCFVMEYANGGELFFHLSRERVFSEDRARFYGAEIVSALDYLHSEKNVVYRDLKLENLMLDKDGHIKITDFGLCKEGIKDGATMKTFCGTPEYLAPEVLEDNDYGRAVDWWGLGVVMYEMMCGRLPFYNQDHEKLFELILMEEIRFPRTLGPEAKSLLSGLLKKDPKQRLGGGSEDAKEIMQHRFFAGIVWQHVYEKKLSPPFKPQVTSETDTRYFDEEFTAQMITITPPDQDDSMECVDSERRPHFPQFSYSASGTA

AKT1 WT [2] = target: T2, AKT1 WT (Homo sapiens (Human), UniProt P31749); assay: as above; assay type: binding; settings: compound 1.5 μM, 2 hours at 37° C., then ARQ092 50 μM
Description: as §1
Target sequence in this assay (P31749 2-480): as the sequence (P31749 2-480 E17K) above, with K16E counted along it

AKT1 E17K mutant protein = AKT1 E17K mutant protein (Homo sapiens (Human), UniProt P31749, E17K); assay: Intact mass spectrometry, covalent complex formation and ARQ-092 competition; assay type: binding; settings: for covalent complex formation with AKT1 E17K mutant protein / covalent complex formation with AKT1 E17K mutant protein in presence of competitor: protein 1 μM, compound 1.5 μM, 2 hrs at 37° C., NaBH4 reduction; for covalent complex formation with AKT1 E17K mutant protein: absence of competitor; for covalent complex formation with AKT1 E17K mutant protein in presence of competitor: with ARQ092 (50 μM)
Description: (§2) AKT1 WT or AKT1 E17K (1 μM) was treated with a compound from Table 1 (1.5 μM) for 2 hrs at 37° C., with and without ARQ092 (50 μM) competitor as a specificity control. Reversible imines were captured by reductive amination with 5 mM NaBH4 for 5 min. Reduction reactions were quenched by diluting the sample in equal volume acetonitrile+1% TFA, then analyzed by LCMS.
(§3) FIGS. 1 to 25 provide intact mass spectra for AKT1 WT protein and AKT1 E17K mutant protein after incubation with compounds of the present disclosure and subsequent borohydride reduction. […] Further, FIGS. 1 to 10, 12, and 14 to 25 each provide intact mass spectra following the incubation of an AKT1 protein with a compound of the present disclosure both in the absence of a competitor molecule (i.e., ARQ-092, a molecule known to bind to and inhibit the function of AKT1); and in the presence of a significant stoichiometric excess of a competitor molecule.

AKT1 WT [3] = target: T2, AKT1 WT; assay: as above; assay type: binding; settings: protein 1 μM, compound 1.5 μM, 2 hrs at 37° C., NaBH4 reduction; for covalent complex formation with AKT1 WT protein: absence of competitor; for covalent complex formation with AKT1 WT protein in presence of competitor: with ARQ092 (50 μM)
Description: as §2, §3
Target sequence in this assay (P31749 2-480): as the sequence (P31749 2-480 E17K) above, with K16E counted along it

AKT1 E17K [4] = target: T1, AKT1 E17K; assay: Live cell target engagement (NanoBRET) in HEK293 cells; assay type: cell-based
Target sequence in this assay (P31749 whole entry E17K): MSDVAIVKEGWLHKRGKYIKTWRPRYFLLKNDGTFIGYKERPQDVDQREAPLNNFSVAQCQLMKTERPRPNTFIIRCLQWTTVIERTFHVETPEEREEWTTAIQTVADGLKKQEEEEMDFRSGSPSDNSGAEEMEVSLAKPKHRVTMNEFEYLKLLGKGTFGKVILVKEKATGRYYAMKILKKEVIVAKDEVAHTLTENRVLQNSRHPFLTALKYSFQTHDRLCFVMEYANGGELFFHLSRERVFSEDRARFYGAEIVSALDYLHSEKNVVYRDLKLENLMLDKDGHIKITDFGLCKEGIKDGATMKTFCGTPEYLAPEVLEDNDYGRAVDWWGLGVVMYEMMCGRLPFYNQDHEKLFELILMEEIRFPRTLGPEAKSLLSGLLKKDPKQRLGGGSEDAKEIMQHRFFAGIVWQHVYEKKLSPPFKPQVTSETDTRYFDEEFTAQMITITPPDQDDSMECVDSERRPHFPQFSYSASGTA

AKT1 WT [5] = target: T2, AKT1 WT; assay: as above; assay type: cell-based
Target sequence in this assay (P31749 whole entry): as the sequence (P31749 whole entry E17K) above, with K17E counted along it

AKT2 = AKT2 (Homo sapiens (Human), UniProt P31751); assay: as above; assay type: cell-based
AKT1 E17K [6] = target: T1, AKT1 E17K; assay: Dissociation rate of Compound A and Compound B by competition with ARQ-092, LCMS; assay type: binding; settings: for AKT1 E17K t1/2: compound 5 μM, 15 minutes, then ARQ-092 50 μM, 25 mM HEPES pH 8.0, 150 mM NaCl; for Off-rate Selectivity E17K/WT: ratio of t1/2
Description: (§4) Determination of compound dissociation rate by intact protein mass spectrometry:Recombinant AKT1 containing appropriate mutations (1 μM) was treated with inhibitor (5 μM) at room temperature. After 15 minutes, ARQ-092 (50 μM final concentration) was added to prevent aldehyde-containing compound rebinding after initial dissociation. At various timepoints, aliquots were removed and quenched with 5 mM NaBH4 to capture the reversible imine through reductive amination, then analyzed by LCMS. Deconvoluted monoisotopic intensities of unmodified vs. compound-modified mass peaks were compared.
(§5) AKT1(E17K or WT) (1 μM) was incubated with Compound A or Compound B (5 μM) for 15 minutes in 25 mM HEPES pH 8.0, 150 mM NaCl buffer. Then ARQ-092 (50 μM) was added and aliquots quenched with 5 mM NaBH4 at a series of timepoints and the percentage labelling determined by LCMS. FIG. 32A and FIG. 32B provide competition data (dissociation rates) for Compound A and Compound B in both wild-type AKT1 and AKT1 E17K against ARQ-092. Table 8 provides half-life data based on the dissociation studies described herein.
Target sequence in this assay (P31749 2-480 E17K): as the sequence (P31749 2-480 E17K) above

AKT1 WT [7] = target: T2, AKT1 WT; assay: as above; assay type: binding; settings: compound 5 μM, 15 minutes, then ARQ-092 50 μM; 25 mM HEPES pH 8.0, 150 mM NaCl
Description: as §4, §5
Target sequence in this assay (P31749 2-480): as the sequence (P31749 2-480 E17K) above, with K16E counted along it

BEAS2B-AKT1(E17K) = BEAS2B-AKT1(E17K) (Homo sapiens (Human), UniProt P31749, E17K); assay: Washout, target engagement durability in intact cells (in-gel fluorescence); assay type: cell-based
Description: (§6) FIG. 31 illustrates in-gel fluorescence and western blot wash out experiments of BEAS2B-AKT1(WT) and BEAS2B-AKT1(E17K) following incubation of the cells with Compound B for 0.5 hr. Wash out periods were 0 hr, 0.5 hr, 1 hr, 1.5 hr, 3 hrs, and 21 hrs.
(§7) Measurement of target engagement durability in intact cells: Beas-2b cells stably over-expressing either Flag-AKT1 WT or Flag-AKT1 E17K were treated with compound for 30 minutes at 37 C. The media was then aspirated and replaced with fresh media and the cells were incubated at 37° C. At various timepoints, cells were washed with PBS and then lysed in buffer containing 5 mM NaBH4. After 1 h, the lysate was precipitated in MeOH/CHCl3, resuspended in 1% SDS in PBS and then subjected to copper catalyzed click chemistry with TAMRA-biotin-azide. The samples were precipitated again and then resuspended in 1.5× SDS loading buffer, separated by SDS-PAGE and analyzed by in-gel fluorescence and western blot.

BEAS2B-AKT1(WT) = BEAS2B-AKT1(WT) (Homo sapiens (Human), UniProt P31749); assay: as above; assay type: cell-based; settings: incubation 0.5 hr; 21 hours of dilution compared to 1 hour
Description: as §6, §7

Chain of AKT2 (P31751 whole entry): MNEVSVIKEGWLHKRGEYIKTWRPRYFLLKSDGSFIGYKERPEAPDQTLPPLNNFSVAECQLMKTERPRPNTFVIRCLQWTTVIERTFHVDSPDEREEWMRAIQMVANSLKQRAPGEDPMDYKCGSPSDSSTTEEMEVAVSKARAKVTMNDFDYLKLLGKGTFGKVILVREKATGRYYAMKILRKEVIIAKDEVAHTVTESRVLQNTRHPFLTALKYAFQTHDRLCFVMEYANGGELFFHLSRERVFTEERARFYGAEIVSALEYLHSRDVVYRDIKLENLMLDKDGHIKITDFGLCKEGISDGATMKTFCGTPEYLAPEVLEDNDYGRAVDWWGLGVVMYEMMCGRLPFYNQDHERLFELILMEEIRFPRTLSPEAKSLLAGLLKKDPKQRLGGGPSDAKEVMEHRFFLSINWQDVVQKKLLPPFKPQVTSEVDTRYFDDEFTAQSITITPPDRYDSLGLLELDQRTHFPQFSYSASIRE
Chain of AKT1 E17K mutant protein (P31749 2-480 E17K): as the sequence (P31749 2-480 E17K) above
Chain of BEAS2B-AKT1(E17K) (P31749 whole entry E17K): as the sequence (P31749 whole entry E17K) above
Chain of BEAS2B-AKT1(WT) (P31749 whole entry): as the sequence (P31749 whole entry E17K) above, with K17E counted along it

Compound	AKT1 E17K t1/2 (AKT1 E17K [1]) [min]	Off-rate Selectivity E17K/WT (AKT1 E17K [1])	AKT1 (WT) t1/2 (AKT1 WT [2]) [min]	AKT1 E17K IC50: Selectivity vs AKT1 WT (AKT1 E17K [4])	AKT1 E17K IC50: Selectivity vs AKT2 (AKT1 E17K [4])	IC50 (AKT1 E17K [4]; HEK293, 2 hours at 37° C.) [nM]	IC50 (AKT1 WT [5]; HEK293, 2 hours at 37° C.) [nM]	IC50 (AKT2; HEK293, 2 hours at 37° C.) [nM]	covalent complex formation with AKT1 E17K mutant protein (AKT1 E17K mutant protein)	covalent complex formation with AKT1 E17K mutant protein in presence of competitor (AKT1 E17K mutant protein)	covalent complex formation with AKT1 WT protein (AKT1 WT [3])	covalent complex formation with AKT1 WT protein in presence of competitor (AKT1 WT [3])	further results
Nc1ncccc1-c1nc2cccnc2n1-c1ccc(CNC(=O)Cc2ccc(C=O)c(O)c2)cc1 [Compound 96, N-(4-(2-(2-aminopyridin-3-yl)-3H-imidazo[4,5-b]pyridin-3-yl)benzyl)-2-(4-formyl-3-hydroxyphenyl)acetamide]	55.5	5.2	10.7	4.6	64	< 100	< 100	> 500	significant presence of a covalent complex	Essentially little to no covalent complex formation	significant presence of covalent complex	Essentially no covalent complex formation	
CC(=O)Nc1cc(CCNCc2ccc(-n3c(-c4cccnc4N)nc4ccc(-c5ccccc5)nc43)cc2)ccc1C=O [Compound 110, N-(5-(2-((4-(2-(2-aminopyridin-3-yl)-5-phenyl-3H-imidazo[4,5-b]pyridin-3-yl)benzyl)amino)ethyl)-2-formylphenyl)acetamide]	43.2	8.8	4.9	1.2	5.3	< 100	< 100	< 100	significant presence of a covalent complex	Essentially little to no covalent complex formation	small presence of covalent complex	Essentially no covalent complex formation	selectivity of complex formation, AKT1 E17K versus AKT1 WT (AKT1 E17K mutant protein; comparison of the spectra without competitor): selective for complex formation with AKT1 E17K
Nc1ncccc1-c1nc2ccc(-c3ccccc3)nc2n1-c1ccc(CNCCc2ccc(C=O)cc2)cc1 [Compound 125, 4-(2-((4-(2-(2-aminopyridin-3-yl)-5-phenyl-3H-imidazo[4,5-b]pyridin-3-yl)benzyl)amino)ethyl)benzaldehyde]	176	3.9	45.3	0.28	0.39	100 to 500	100 to 500	100 to 500	presence of covalent complex	Essentially no covalent complex formation	only peaks corresponding to unmodified WT protein	only peaks corresponding to unmodified WT protein	
Nc1ncccc1-c1nc2ccc(-c3ccccc3)nc2n1-c1ccc(CNCCc2ccc(C=O)c(O)c2)cc1 [Compound 133, 4-(2-((4-(2-(2-aminopyridin-3-yl)-5-phenyl-3H-imidazo[4,5-b]pyridin-3-yl)benzyl)amino)ethyl)-2-hydroxybenzaldehyde]	126	5.6	22.7	1.4	4.7	< 100	< 100	100 to 500	a covalent complex between Compound 133 and AKT1 E17K mutant protein was observed	essentially no covalent complex formation	a noticeable level of covalent complex was formed	essentially no covalent complex formation	
C#Cc1cccc(-c2ccc3nc(-c4cccnc4N)n(-c4ccc(CNC(=O)c5ccc(C=O)c(O)c5)cc4)c3n2)c1 [Compound A, N-(4-(2-(2-aminopyridin-3-yl)-5-(3-ethynylphenyl)-3H-imidazo[4,5-b]pyridin-3-yl)benzyl)-4-formyl-3-hydroxybenzamide]													AKT1 E17K t1/2 (AKT1 E17K [6]): 8.2 min; Off-rate Selectivity E17K/WT (AKT1 E17K [6]): 1.6; AKT1 (WT) t1/2 (AKT1 WT [7]): 5 min; IC50 (AKT1 E17K [4]; HEK293, 2 h at 37 C, Table 7): 100 to 500 nM; IC50 (AKT1 WT [5]; HEK293, 2 h at 37 C, Table 7): < 100 nM; IC50 (AKT2; HEK293, 2 h at 37 C, Table 7): > 500 nM
C#Cc1cccc(-c2ccc3nc(-c4cccnc4N)n(-c4ccc(CNCCc5ccc(C=O)c(O)c5)cc4)c3n2)c1 [Compound B, 4-(2-((4-(2-(2-aminopyridin-3-yl)-5-(3-ethynylphenyl)-3H-imidazo[4,5-b]pyridin-3-yl)benzyl)amino)ethyl)-2-hydroxybenzaldehyde]													extent of binding to E17K AKT1 after washout (BEAS2B-AKT1(E17K); incubation 0.5 hr, 21 hour of washout compared to 1 hour): roughly equivalent to binding after 1 hour of washout; selectivity of binding, E17K AKT1 versus WT-AKT1 (BEAS2B-AKT1(E17K); washout experiment): binds with substantial selectively to K17 in E17K AKT1; extent of binding to WT-AKT1 after washout (BEAS2B-AKT1(WT)): markedly diminished; AKT1 E17K t1/2 (AKT1 E17K [6]): 1037 min; Off-rate Selectivity E17K/WT (AKT1 E17K [6]): 14.7; AKT1 (WT) t1/2 (AKT1 WT [7]): 72.7 min; IC50 (AKT1 E17K [4]; HEK293, 2 h at 37 C, Table 7): < 100 nM; IC50 (AKT1 WT [5]; HEK293, 2 h at 37 C, Table 7): 100 to 500 nM; IC50 (AKT2; HEK293, 2 h at 37 C, Table 7): > 500 nM
Nc1ncccc1-c1nc2ccc(-c3cccc(N4CCOCC4)c3)nc2n1-c1ccc(CNC(=O)Cc2ccc(C=O)c(O)c2F)cc1 [Example 21, N-({4-[2-(2-aminopyridin-3-yl)-5-[3-(morpholin-4-yl)phenyl]imidazo[4,5-b]pyridin-3-yl]phenyl}methyl)-2-(2-fluoro-4-formyl-3-hydroxyphenyl)acetamide]	68.2	1.5	45.3	1.5	4.8	< 100	< 100	< 100	significant presence of a covalent complex	Essentially no covalent complex formation	significant presence of a covalent complex	Essentially no covalent complex formation	
